# Measurements from patent US11730720B2, “ALK5 inhibitors” (THERAVANCE BIOPHARMA R&D IP, LLC, priority 2018, dated 2023).
# Tests used:
# [1] = target: T1, recombinant human ALK5 (TGF-βR1) protein (Homo sapiens, UniProt P36897); test: Biochemical ALK5 (TGF-βR1) assay to measure pKi (LANCE Ultra ULight kinase assay); settings: apparent pKi, converted from pIC50 using the Cheng-Prusoff equation
# T1 construct: purchased Life Technologies PR9075A
# T1 sequence (P36897 34-503): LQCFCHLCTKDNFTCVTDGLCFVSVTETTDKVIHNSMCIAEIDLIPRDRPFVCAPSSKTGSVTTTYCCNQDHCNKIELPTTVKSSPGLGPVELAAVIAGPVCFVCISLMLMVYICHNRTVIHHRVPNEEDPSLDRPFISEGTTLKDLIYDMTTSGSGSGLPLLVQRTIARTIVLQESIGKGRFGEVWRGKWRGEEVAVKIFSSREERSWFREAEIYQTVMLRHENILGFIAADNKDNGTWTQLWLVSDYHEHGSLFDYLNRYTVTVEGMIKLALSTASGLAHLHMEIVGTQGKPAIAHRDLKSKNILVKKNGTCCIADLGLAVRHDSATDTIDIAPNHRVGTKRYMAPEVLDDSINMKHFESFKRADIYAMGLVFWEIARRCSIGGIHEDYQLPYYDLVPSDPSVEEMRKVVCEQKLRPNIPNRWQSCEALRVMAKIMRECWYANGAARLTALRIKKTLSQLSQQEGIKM
# Summary of the method: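 TR-FRET kinase format: compound dose range 10 μM–25 pM equilibrated 60 min with human ALK5 and ULight-labelled topoisomerase 2α peptide in HEPES/MgCl2 buffer pH 7.5 with DTT. Reaction started with ATP (125 μM stock, 5× final), 60 min at 37° C, stopped with EDTA/Eu-anti-phospho antibody; pKi derived from pIC50 via Cheng-Prusoff.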
# [2] = system: TGF-β-stimulated SMAD3 phosphorylation in BEAS-2B cells; test: Cellular ALK5 potency assay, inhibition of TGF-β stimulated pSMAD3 formation in BEAS-2B cells; type: cell-based; settings: Homo sapiens, inhibition of TGF-β (10 ng/mL) stimulated pSMAD3 formation, 1 hour compound incubation, read-out: BEAS2B pIC50 (converted)
# Summary of the method: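 Phospho-SMAD3 was quantified by AlphaLISA in lysates of human lung epithelial BEAS-2B cells. Compound was added 1 h (37 °C, HEPES/BSA-supplemented HBSS) before a 30 min challenge with 10 ng/mL TGF-β. Values are pIC50 relative to stimulated cells without compound.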
Ki [1] [nM],SMILES,IC50 [2] [nM]
0.0398 to 0.316,"CN1CCN(C2CCN(c3cnc4ccc(-c5c(-c6cc(Cl)ccc6F)nc6ccccn56)nc4c3)CC2)CC1 [Compound 3-5, 2-[2-(5-chloro-2-fluoro-phenyl)imidazo[1,2-a]pyridin-3-yl]-7-[4-(4-methylpiperazin-1-yl)-1-piperidyl]-1,5-naphthyridine]",200 to 1260
0.0398 to 0.316,"OCCN1CCN(c2cnc3ccc(-c4c[nH]nc4-c4cc(Cl)ccc4F)nc3c2)CC1 [Compound 1-36, 2-[4-[6-[3-(5-chloro-2-fluoro-phenyl)-1H-pyrazol-4-yl]-1,5-naphthyridin-3-yl]piperazin-1-yl]ethanol]",25.1 to 158
0.0398 to 0.316,"Fc1ccc(Cl)cc1-c1nc2ccccn2c1-c1ccc2ncc(-c3cnn4c3CNCC4)cc2n1 [Compound 3-7, 2-[2-(5-chloro-2-fluoro-phenyl)imidazo[1,2-a]pyridin-3-yl]-7-(4,5,6,7-tetrahydropyrazolo[1,5-a]pyrazin-3-yl)-1,5-naphthyridine]",25.1 to 158
0.0398 to 0.316,"COCc1cccc(-c2n[nH]cc2-c2ccc3ncc(C4=CCC(N(C)C)CC4)cc3n2)c1 (stereo not drawn) [Compound 14-14, 4-(6-(3-(3-(methoxymethyl)phenyl)-1H-pyrazol-4-yl)-1,5-naphthyridin-3-yl)-N,N-dimethylcyclohex-3-en-1-amine]",25.1 to 158
0.0398 to 0.316,"CN1CCC(Nc2cnc3ccc(-c4c[nH]nc4-c4cc(Cl)ccc4F)nc3c2)CC1 [Compound 1-3, 6-[3-(5-chloro-2-fluoro-phenyl)-1H-pyrazol-4-yl]-N-(1-methyl-4-piperidyl)-1,5-naphthyridine-3-amine]",≤ 20
0.398 to 3.16,"CN(C)C1CCN(c2cnc3ccc(-c4c[nH]nc4-c4ccc(F)c(F)c4)nc3c2)C1 (racemic) [Compound 8-5, rac-(3S)-1-[6-[3-(3,4-difluorophenyl)-1H-pyrazol-4-yl]-1,5-naphthyridin-3-yl]-N,N-dimethyl-pyrrolidin-3-amine]",25.1 to 158
3.98 to 31.6,"COC(=O)c1cnc2ccc(-c3c(-c4cc(Cl)ccc4F)nnn3Cc3ccccc3)nc2c1 [Compound 4-2, methyl 6-[3-benzyl-5-(5-chloro-2-fluoro-phenyl)triazol-4-yl]-1,5-naphthyridine-3-carboxylate]",200 to 1260
0.0398 to 0.316,"CC1(C)CCCN1CCNc1cnc2ccc(-c3c[nH]nc3-c3cc(Cl)ccc3F)nc2c1 [Compound 1-13, 6-[3-(5-chloro-2-fluoro-phenyl)-1H-pyrazol-4-yl]-N-[2-(2,2-dimethylpyrrolidin-1-yl)ethyl]-1,5-naphthyridin-3-amine]",≤ 20
3.98 to 31.6,"COCc1cccc(-c2n[nH]cc2-c2ccc3ncc(N4CCN(C(C)C)CC4)cc3n2)c1 [Compound 14-5, 7-(4-isopropylpiperazin-1-yl)-2-[3-[3-(methoxymethyl)phenyl]-1H-pyrazol-4-yl]-1,5-naphthyridine]",25.1 to 158
0.398 to 3.16,"Fc1cc(F)c(-c2n[nH]cc2-c2ccc3ncc(NCCN4CCCC4)cc3n2)cc1Cl [Compound 6-7, 6-[3-(5-chloro-2,4-difluoro-phenyl)-1H-pyrazol-4-yl]-N-(2-pyrrolidin-1-ylethyl)-1,5-naphthyridin-3-amine]",25.1 to 158
0.398 to 3.16,"CC(C)N1CCN(CCNc2cnc3ccc(-c4c(-c5cc(Cl)ccc5F)nc5ccccn45)cc3c2)CC1 [Compound 19-6, 6-(2-(5-chloro-2-fluorophenyl)imidazo[1,2-a]pyridin-3-yl)-N-(2-(4-isopropylpiperazin-1-yl)ethyl)quinolin-3-amine]",200 to 1260
0.0398 to 0.316,"Fc1ccc(Cl)cc1-c1n[nH]cc1-c1ccc2ncc(NCC3CCCCN3)cc2n1 (stereo not drawn) [Compound 1-23, 6-[3-(5-chloro-2-fluoro-phenyl)-1H-pyrazol-4-yl]-N-(2-piperidylmethyl)-1,5-naphthyridin-3-amine]",25.1 to 158
≤ 0.0316,"CNCCn1cc(-c2cnc3ccc(-c4nn[nH]c4-c4cc(Cl)ccc4F)cc3c2)cn1 [Compound 18-1, 2-(4-(6-(5-(5-chloro-2-fluorophenyl)-1H-1,2,3-triazol-4-yl)quinolin-3-yl)-1H-pyrazol-1-yl)-N-methylethan-1-amine]",25.1 to 158
0.398 to 3.16,"C[C@@H]1CN(CCNc2cnc3ccc(-c4nc[nH]c4-c4cccc(Cl)c4)nc3c2)C[C@H](C)N1 [Compound 29-2, 6-[5-(3-chlorophenyl)-1H-imidazol-4-yl]-N-[2-[rac-(3R,5S)-3,5-dimethylpiperazin-1-yl]ethyl]-1,5-naphthyridin-3-amine]",25.1 to 158
0.398 to 3.16,"CN(C)C1(C)CN(c2cnc3ccc(-c4c[nH]nc4-c4cc(Cl)c(F)cc4F)nc3c2)C1 [Compound 6-20, 1-[6-[3-(5-chloro-2,4-difluoro-phenyl)-1H-pyrazol-4-yl]-1,5-naphthyridin-3-yl]-N,N,3-trimethyl-azetidin-3-amine]",25.1 to 158
3.98 to 31.6,"C[C@@H]1CN(c2cnc3ccc(-c4c[nH]nc4-c4cc(Cl)ccc4F)nc3c2)[C@H](C)CN1C (racemic) [Compound 1-75, 2-[3-(5-chloro-2-fluoro-phenyl)-1H-pyrazol-4-yl]-7-[rac-(2R,5R)-2,4,5-trimethylpiperazin-1-yl]-1,5-naphthyridine]",25.1 to 158
3.98 to 31.6,"Fc1ccc(Cl)cc1-c1[nH]cnc1-c1ccc2ncc(Nc3ccc(N4CCN(Cc5ccccc5)CC4)cn3)cc2n1 [Compound 2-27, N-[5-(4-benzylpiperazin-1-yl)-2-pyridyl]-6-[5-(5-chloro-2-fluoro-phenyl)-1H-imidazol-4-yl]-1,5-naphthyridin-3-amine]",25.1 to 158
0.0398 to 0.316,"NCCn1cc(-c2cnc3ccc(-c4nc[nH]c4-c4cc(Cl)c(F)cc4F)nc3c2)cn1 [Compound 7-5, 2-[4-[6-[5-(5-chloro-2,4-difluoro-phenyl)-1H-imidazol-4-yl]-1,5-naphthyridin-3-yl]pyrazol-1-yl]ethanamine]",25.1 to 158
0.0398 to 0.316,"Fc1ccc(Cl)cc1-c1nc2ccccn2c1-c1ccc2ncc(N3CCCNCC3)cc2n1 [Compound 3-3, 2-[2-(5-chloro-2-fluoro-phenyl)imidazo[1,2-a]pyridin-3-yl]-7-(1,4-diazepan-1-yl)-1,5-naphthyridine]",25.1 to 158
0.0398 to 0.316,"Fc1ccc(Cl)cc1-c1n[nH]cc1-c1ccc2ncc(-c3[nH]nc4c3CCN4)cc2n1 [Compound 1-125, 2-[3-(5-chloro-2-fluoro-phenyl)-1H-pyrazol-4-yl]-7-(2,4,5,6-tetrahydropyrrolo[2,3-c]pyrazol-3-yl)-1,5-naphthyridine]",25.1 to 158
0.0398 to 0.316,"CC(C)N1CCN(c2ccc(Nc3cnc4ccc(-c5nc[nH]c5-c5cc(Cl)ccc5F)nc4c3)nc2)CC1 [Compound 2-5, 6-(5-(5-chloro-2-fluorophenyl)-1H-imidazol-4-yl)-N-(5-(4-isopropylpiperazin-1-yl)pyridin-2-yl)-1,5-naphthyridin-3-amine]",25.1 to 158
0.0398 to 0.316,"Fc1ccc(Cl)cc1-c1n[nH]cc1-c1ccc2ncc(-c3nnn4c3NCC4)cc2n1 [Compound 1-123, 2-[3-(5-chloro-2-fluoro-phenyl)-1H-pyrazol-4-yl]-7-(5,6-dihydro-4H-imidazo[1,2-c]triazol-3-yl)-1,5-naphthyridine]",25.1 to 158
0.0398 to 0.316,"Fc1cc(F)c(-c2n[nH]cc2-c2ccc3ncc(NCC4CN5CCN4CC5)cc3n2)cc1Cl (stereo not drawn) [Compound 6-4, 6-[3-(5-chloro-2,4-difluoro-phenyl)-1H-pyrazol-4-yl]-N-(1,4-diazabicyclo[2.2.2]octan-2-ylmethyl)-1,5-naphthyridin-3-amine]",25.1 to 158
≤ 0.0316,"CNCCn1cc(-c2cnc3ccc(-c4c[nH]nc4-c4cc(Cl)ccc4F)nc3c2)cn1 [Compound 1-87, 2-(4-(6-(3-(5-chloro-2-fluorophenyl)-1H-pyrazol-4-yl)-1,5-naphthyridin-3-yl)-1H-pyrazol-1-yl)-N-methylethan-1-amine]",≤ 20
0.0398 to 0.316,"CNC(=O)[C@H]1CN(c2cnc3ccc(-c4c[nH]nc4-c4cc(Cl)c(F)cc4F)nc3c2)CCN1C(C)C [Compound 6-38, (2R)-4-[6-[3-(5-chloro-2,4-difluoro-phenyl)-1H-pyrazol-4-yl]-1,5-naphthyridin-3-yl]-1-isopropyl-N-methyl-piperazine-2-carboxamide]",25.1 to 158
0.0398 to 0.316,"Fc1ccc(Cl)cc1-c1nc2ccccn2c1-c1ccc2ncc(-c3nnn4c3CNCC4)cc2n1 [Compound 3-6, 2-(2-(5-chloro-2-fluorophenyl)imidazo[1,2-a]pyridin-3-yl)-7-(4,5,6,7-tetrahydro-[1,2,3]triazolo[1,5-a]pyrazin-3-yl)-1,5-naphthyridine]",25.1 to 158
3.98 to 31.6,"Fc1ccccc1-c1n[nH]cc1-c1ccc2ncc(-c3cccnc3)cc2n1 [Compound 11-4, 2-[3-(2-fluorophenyl)-1H-pyrazol-4-yl]-7-(3-pyridyl)-1,5-naphthyridine]",25.1 to 158
